Data reported in patent publication US7183383B2, “Uses of collagen IV” (The University of Arkansas for Medical Sciences, priority 2002, dated 2007).

Columns and labels:
Format in all cases: cell-based, rabbit
[1] = system: renal proximal tubular cells; assay: Basal oxygen consumption (QO2), a measure of mitochondrial function
Description: (§1) Confluent monolayers of renal proximal tubular cells (day 6 after seeding) were exposed to 200 μM S-(1,2-dichlorovinyl)-L-cysteine (dissolved in water) for 1.75 hours followed by toxicant removal and addition of fresh culture media. This method produces approximately 50% cell death and loss 24 hours after the exposure. On days 1, 4, and 6 following S-(1,2-dichlorovinyl)-L-cysteine exposure, the ability of the remaining renal proximal tubular cells to regenerate and repair physiological function was monitored as described below. In some experiments, immediately after S-(1,2-dichlorovinyl)-L-cysteine exposure and after daily media change through day 6 after injury, collagen I (0, 5, 15, or 50 μg/ml), collagen IV (0, 5, 15, or 50 μg/ml), laminin (50 μg/ml), or cellular fibronectin (50 μg/ml) was added to the culture media of uninjured and S-(1,2-dichlorovinyl)-L-cysteine-injured renal proximal tubular cells grown in physiological concentrations of AscP. Exogenous collagens I and IV used in this study were triple helical and contained only α1 and α2 chains in conformations similar to those found in the renal basement membrane (3, 25). Laminin was a mixture of biologically active laminin chains found in most epithelial tissues (8, 50) and cellular fibronectin was composed of functional dimers (51).
On days 1, 4, and 6 after sublethal S-(1,2-dichlorovinyl)L-cysteine injury, renal proximal tubular cells bathed in 37° C. culture medium were gently detached from culture dishes with a rubber policeman and transferred to a 37° C. oxygen consumption (QO2) chamber. Basal renal proximal tubular cells QO2 was measured polarographically using a Clark-type electrode as described previously (36).

[2] = system: renal proximal tubular cells; assay: Cell density (monolayer protein content) in DCVC-injured RPTC; details: for monolayer protein content in injured RPTC: day 1 or day 6 after DCVC, 50 μg/ml
Description: Rabbit renal proximal tubules were isolated using the iron oxide perfusion method and grown in 35-mm tissue culture dishes or 48-well cell culture clusters under improved conditions as previously described (35, 36). The cell culture medium was a 1:1 mixture of DMEM/Ham's F-12 (without D-glucose, phenol red, or sodium pyruvate) supplemented with 15 mM HEPES buffer, 2.5 mM L-glutamine, 1 μM pyridoxine HCl, 15 mM sodium bicarbonate, and 6 mM lactate. Hydrocortisone (50 nM), selenium (5 ng/ml), human transferrin (5 μg/ml), bovine insulin (10 nM), and L-ascorbic acid-2-phosphate (50 μM or 500 μM) were added to fresh culture medium immediately prior to daily media change. L-Ascorbic acid-2-phosphate (AscP) was used due to the fact that L-ascorbic acid is unstable in culture media. AscP is stable in culture media for ≧7 days at 37° C. and, after intracellular dephosphorylation, has the same effect on cultured cells as L-ascorbic acid (13).
as §1
Measurement of monolayer protein content over time was used to estimate cell density. On days 1, 4, and 6 after sublethal S-(1,2-dichlorovinyl)-L-cysteine injury, renal proximal tubular cell monolayers were washed with PBS and solubilized in Triton buffer (0.05% Triton X-100, 100 mM Tris-Base, 150 mM NaCl, pH 7.5). Samples were sonicated and protein concentrations determined using the method of Lowry (26) or the bicinchoninic acid microassay according to the manufacturer's instructions (Pierce, Rockford, Ill.).

[3] = system: Na^+/K^+-ATPase activity in renal proximal tubular cells; assay: Na^+/K^+-ATPase activity (ouabain-sensitive ATPase); details: day 6 after DCVC injury; 50 μg/ml
Description: as §1
On days 1 and 6 after sublethal S-(1,2-dichlorovinyl)-L-cysteine injury, total ATPase activity was measured using a modification of a previously described procedure (44). Briefly, renal proximal tubular cells cultured in 48-well cell culture clusters were scraped and incubated in dissociation buffer (5 mM HEPES (pH 7.4), 25 mM imidazole, 1% BSA, 0.065% sodium dodecyl sulfate (SDS)) for 10 min. at room temperature and placed on ice. The dissociated renal proximal tubular cells were then diluted 5-fold with additional dissociation buffer minus SDS. Aliquots of dissociated renal proximal tubular cells were combined with fresh ATPase assay buffer (2.54 mM MgCl2, 100 mM NaCl, 10 mM KCl, 5 mM HEPES, 10 U/ml lactate dehydrogenase, 7 U/ml pyruvate kinase, 2.54 mM Na2ATP, 2.54 mM phospho(enol)pyruvate, and 0.5 mM β-NADH). ATPase activity was measured under linear conditions spectrophotometrically as the oxidation of β-NADH to NAD^+ at 37° C. in the absence or presence of ouabain (0.1 mM) at a wavelength of 340 nm. Na^+/K^+-ATPase activity was calculated as total ATPase activity minus ouabain-insensitive ATPase activity.
Confluent monolayers of renal proximal tubular cells (day 6 after seeding) were exposed to 200 μM S-(1,2-dichlorovinyl)-L-cysteine (dissolved in water) for 1.75 hours followed by toxicant removal and addition of fresh culture media. This method produces approximately 50% cell death and loss 24 hours after the exposure. In some experiments, exogenous collagen IV (50 μg/ml), collagen I (50 μg/ml), or function-stimulating antibodies to collagen-binding integrin subunits α2 or β1 (5 μg/ml) was added daily to the culture media of S-(1,2-dichlorovinyl)-L-cysteine-injured renal proximal tubular cells cultured in the absence of pharmacological concentrations of L-ascorbic acid-2-phosphate. Function-stimulating antibodies to collagen-binding integrin α1 are not commercially available at this time. On days 1 and 6 following S-(1,2-dichlorovinyl)-L-cysteine exposure, active Na^+ transport or Na^+/K^+-ATPase activity, and collagen-binding integrin expression and/or localization in the remaining sublethally injured renal proximal tubular cells was determined as described below.
Total ATPase activity was measured as described above. […]

[4] = day 1 after DCVC injury, in presence of exogenous protein
[5] = day 6 after DCVC injury, 5, 15, 50 μg/ml
[6] = uninjured RPTC, days 1 or 6, exogenous protein

| Substance | decrease in basal QO2 [1, 4] | repair of basal QO2 [1, 5] | basal QO2 in untreated RPTC [1, 6] | decrease in monolayer cell density [2, 4] | monolayer protein content in injured RPTC [2] | cell density [2, 5] | monolayer cell density in untreated RPTC [2, 6] | Na^+/K^+-ATPase activity in injured RPTC [3] |
| --- | --- | --- | --- | --- | --- | --- | --- | --- |
| collagen I: Rat tail collagen I; triple helical, containing only α1 and α2 chains | approximately 50% | neither increased cell density nor repair of basal QO2 | no effect | approximately 50% | no change | neither increased cell density nor repair of basal QO2 | no effect | remained inhibited |
| fibronectin |  |  |  |  | no change |  |  | remained inhibited |
| laminin |  |  |  |  | no change |  |  | remained inhibited |
